{"source": "patent US9522154B2", "about": "“Method for scheduling ovulation” (LABORATOIRE HRA-PHARMA, priority 2013, dated 2016)", "key": {"[1]": {"tested_on": "women", "assay": "Open-label trial of repeated ulipristal acetate 30 mg oral tablet, once weekly (Q7D) or every 5 days (Q5D) for 8 weeks: ovulation", "format": "in vivo, human", "method": "In an open-label designed trial, 12 women received once weekly (Q7D) treatment with ulipristal acetate (30 mg oral tablet) for eight consecutive weeks starting on 7 days ±1 day after the onset of menses in the first cycle; and 11 women received ulipristal acetate 30 mg every 5 days (Q5D) for 8 weeks. […] The first ovulation occurred after a mean of 3.4 and 6.5 doses, and a mean of 17 and 26 days after start of treatment, in the Q7D and Q5D treatment arms, respectively.\nWhenulipristal acetate was given during the follicular phase before the onset of the LH surge, ovulation occurred between 6 and 9 days of the last treatment intake in the majority of women."}, "[2]": {"tested_on": "leading ovarian follicle", "assay": "Clinical trial of a single oral 30 mg dose on the outcome of the leading ovarian follicle before LH surge", "format": "in vivo, human", "conditions": "follicle 14-16 mm", "method": "The results from the clinical trial described in Example 2 were confirmed by a second clinical trial designed to evaluate the effect of a single oral dosage of 30 mg ulipristal acetate on the outcome of the leading ovarian follicle before LH surge, when the follicle was 14-16 mm in diameter. 31 women satisfying all the exclusion/inclusion criteria were enrolled. After the inclusion visit, the women entered the study and underwent ultrasound monitoring starting from Day 5 of their menstrual cycle until the lead follicle reached a diameter of 14-16 mm. At this time, the women received one single dosage of 30 mg ulipristal acetate orally. The women were then monitored daily by ultrasound and hormonal assays until the end of the 21 days treatment period or until ovulation occurred or until the mucus score reached 4 or less at 2 consecutive visits, whichever came first. After which point they were seen twice a week until the end of the study."}, "[3]": {"tested_on": "women", "conditions": "single dose of 30 mg within 72 hours or 120 hours after the intercourse; cited from earlier work"}}}
{"compound": "CC(=O)O[C@]1(C(C)=O)CC[C@H]2[C@@H]3CCC4=CC(=O)CCC4=C3[C@@H](c3ccc(N(C)C)cc3)C[C@@]21C", "note": "[ulipristal acetate, 17α-acetoxy-11β-[4-N, N-dimethylamino-phenyl)-19-norpregna-4,9-diene-3,20-dione]", "values": [{"measurement": "mean time to first ovulation after start of treatment", "setting": "[1]; Q5D arm, 30 mg every 5 days for 8 weeks", "result": 26, "unit": "days"}, {"measurement": "mean number of doses until first ovulation", "setting": "[1]; Q5D arm, 30 mg every 5 days for 8 weeks, 11 women", "result": 6.5, "unit": "doses"}, {"measurement": "inhibition of ovulation throughout the duration of treatment", "setting": "[1]; Q7D and Q5D regimens, majority of subjects", "result": "Neither regimen inhibited ovulation throughout the duration of treatment in a majority of subjects"}, {"measurement": "mean time to first ovulation after start of treatment", "setting": "[1]; Q7D arm, 30 mg oral tablet once weekly for 8 weeks", "result": 17, "unit": "days"}, {"measurement": "mean number of doses until first ovulation", "setting": "[1]; Q7D arm, 30 mg oral tablet once weekly for 8 weeks, 12 women", "result": 3.4, "unit": "doses"}, {"measurement": "parameters of the luteal phase (duration, progesterone levels)", "setting": "[1]; after exposure to 30 mg", "result": "remain within the normal range"}, {"measurement": "fertilizability of the oocyte", "setting": "[1]; despite lengthened follicular phase and delay of LH surge, normal pregnancies after 30 mg exposure in emergency contraception trials", "result": "the oocyte remains fertilizable"}, {"measurement": "mean duration for the ovulation to occur", "setting": "[2]", "result": 7, "unit": "days"}, {"measurement": "median duration for the ovulation to occur", "setting": "[2]", "result": 6, "unit": "days"}, {"measurement": "Outcome of the leading follicle: Atresia, number of women", "setting": "[2]; 31 women", "result": 0}, {"measurement": "Outcome of the leading follicle: LUF, number of women", "setting": "[2]; 31 women", "result": 2}, {"measurement": "Outcome of the leading follicle: Luteal phase insufficiency, number of women", "setting": "[2]; 31 women", "result": 1}, {"measurement": "Outcome of the leading follicle: Ovulation, number of women", "setting": "[2]; 31 women", "result": 27}, {"measurement": "Outcome of the leading follicle: Persistent Follicle, number of women", "setting": "[2]; 31 women", "result": 1}, {"measurement": "avoidance of unwanted pregnancy (emergency contraception)", "setting": "[3]", "result": "safe and effective"}]}
